From US20020137929A1, “1 - (3-heterocyclylphenyl) isothiourea, -isourea, -guanidine and -amidine herbicidal agents” (Intellectual Property Department, BASF Aktiengesellschaft, priority 1998, published 2002)

Assays:
ECHCG (Barnyardgrass) = assay: Preemergence herbicidal evaluation; format: in vivo, Echinochloa crus-galli; conditions: rated 4-5 weeks after treatment
How it was run: (§1)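 Herbicidal effect scored visually, 0-9, at 4 to 5 weeks against a control; compound applied preemergence by aqueous acetone spray to seeded soil at about 0.0156 to 0.500 kg/ha.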

AMBEL (Ragweed, Common) = assay: Postemergence herbicidal evaluation; format: in vivo, Ambrosia artemisifolia
How it was run: (§2)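 Each compound, dispersed in an acetone/water mix (50/50) carrying 0.5% TWEEN 20, is nozzle-sprayed at 40 psi on approximately two-week-old seedlings at about 0.0156–0.500 kg/ha. Plants are assessed 4–5 weeks afterward on a 0–9 scale relative to control; duplicate tests are averaged.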

ZEAMX (Corn, Field) = assay: Preemergence herbicidal evaluation; format: in vivo, Zea mays; conditions: rated 4-5 weeks after treatment
How it was run: as §1

[1] = system: SAGPY (Arrowhead (Pygmaea)); assay: Preemergence weed control under flooded paddy conditions; format: in vivo, Sagittaria pygmaea; conditions: rated 3-4 weeks after treatment
How it was run: (§3)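 First, seeds or propagules go into the top 0.5 cm of silt loam; next, water is held 1.5 to 3 cm over the soil; then compound (50/50 acetone/water) is pipetted into it at about 0.0313 to 0.500 kg/ha; finally plants are rated visually 0-9 after three to four weeks.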

CYPIR (Rice Flatsedge) = assay: Postemergence weed control under flooded paddy conditions; format: in vivo, Cyperus iria; conditions: postemergence weeds, 3-4 weeks after treatment
How it was run: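 Flood-water application, about 0.0313–0.500 kg/ha a.i. in aqueous/acetone 50/50 v/v; water depth 1.5–3 cm throughout. Weeds 3–5 cm, rice 1.5–2.5 leaf. Greenhouse; 0–9 visual rating vs control at 3–4 wk.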

CASOB (Sicklepod) [2] = assay: Postemergence herbicidal evaluation; format: in vivo, Cassia obtusifolia
How it was run: as §2

GALAP (Galium) = assay: Postemergence herbicidal evaluation; format: in vivo, Galium aparine
How it was run: as §2

CASOB (Sicklepod) [3] = assay: Preemergence herbicidal evaluation; format: in vivo, Cassia obtusifolia; conditions: rated 4-5 weeks after treatment
How it was run: as §1

[4] = system: IPOHE (Morningglory, Ivyleaf); assay: Preemergence herbicidal evaluation; format: in vivo, Ipomoea hederacea; conditions: rated 4-5 weeks after treatment
How it was run: as §1

[5] = system: IPOHE (Morningglory, Ivyleaf); assay: Postemergence herbicidal evaluation; format: in vivo, Ipomoea hederacea
How it was run: as §2

[6] = system: TRZAWR (Wheat, Winter, cv Riband); assay: Preemergence herbicidal evaluation; format: in vivo, Triticum aestivum; conditions: rated 4-5 weeks after treatment
How it was run: as §1

ABUTH (Velvetleaf) = assay: Preemergence herbicidal evaluation; format: in vivo, Abutilon theophrasti; conditions: rated 4-5 weeks after treatment
How it was run: as §1

[7] = system: GLXMAW (Soybean, Williams); assay: Preemergence herbicidal evaluation; format: in vivo, Glycine max, (L.) Merr. cv Williams; conditions: rated 4-5 weeks after treatment
How it was run: as §1

MOOVA (Monochoria) = assay: Preemergence weed control under flooded paddy conditions; format: in vivo, Monochoria vaginalis; conditions: rated 3-4 weeks after treatment
How it was run: as §3

CCOC(=O)CN1C(=O)C[S+]([O-])/C1=N/c1cc(-n2c(=O)cc(C(F)(F)F)n(C)c2=O)c(F)cc1Cl (stereo not shown) [Compound 45, 2-{{2-Chloro-5-[3,6-dihydro-3-methyl-2,6-dioxo-4-(trifluoromethyl)-1(2H)-pyrimidinyl]-4-fluoro-phenyl}imino}-4-oxo-3-thiazolidineacetic acid, ethyl ester, 1-oxide]
7.0: Herbicidal rating CYPIR (CYPIR (Rice Flatsedge); rate 0.1250 kg/ha) | Herbicidal rating CYPIR (CYPIR (Rice Flatsedge); rate 0.2500 kg/ha) | Herbicidal rating MOOVA (MOOVA (Monochoria); 0.0313 kg/ha) | Herbicidal rating MOOVA (MOOVA (Monochoria); 0.0625 kg/ha)
0.0: Preemergence herbicidal rating ECHCG (ECHCG (Barnyardgrass); rate 0.0156 kg/ha) | Preemergence herbicidal rating ECHCG (ECHCG (Barnyardgrass); rate 0.0313 kg/ha) | Preemergence herbicidal rating ECHCG (ECHCG (Barnyardgrass); rate 0.0625 kg/ha) | Preemergence herbicidal rating ECHCG (ECHCG (Barnyardgrass); rate 0.1250 kg/ha) | Preemergence herbicidal rating ECHCG (ECHCG (Barnyardgrass); rate 0.2500 kg/ha) | Preemergence herbicidal rating ZEAMX (ZEAMX (Corn, Field); rate 0.0156 kg/ha) | Preemergence herbicidal rating ZEAMX (ZEAMX (Corn, Field); rate 0.0313 kg/ha) | Preemergence herbicidal rating ZEAMX (ZEAMX (Corn, Field); rate 0.0625 kg/ha) | Herbicidal rating SAGPY ([1]; 0.0313 kg/ha) | Herbicidal rating SAGPY ([1]; 0.0625 kg/ha) | Herbicidal rating SAGPY ([1]; 0.1250 kg/ha) | Herbicidal rating CYPIR (CYPIR (Rice Flatsedge); rate 0.0313 kg/ha) | Postemergence herbicidal rating CASOB (CASOB (Sicklepod) [2]; Rate 0.0156 kg/ha) | Postemergence herbicidal rating CASOB (CASOB (Sicklepod) [2]; Rate 0.0313 kg/ha) | Postemergence herbicidal rating CASOB (CASOB (Sicklepod) [2]; Rate 0.0625 kg/ha) | Postemergence herbicidal rating GALAP (GALAP (Galium); Rate 0.0156 kg/ha) | Postemergence herbicidal rating GALAP (GALAP (Galium); Rate 0.0313 kg/ha) | Postemergence herbicidal rating GALAP (GALAP (Galium); Rate 0.0625 kg/ha) | Preemergence herbicidal rating CASOB (CASOB (Sicklepod) [3]; rate 0.0156 kg/ha) | Preemergence herbicidal rating CASOB (CASOB (Sicklepod) [3]; rate 0.0313 kg/ha) | Preemergence herbicidal rating CASOB (CASOB (Sicklepod) [3]; rate 0.0625 kg/ha) | Preemergence herbicidal rating CASOB (CASOB (Sicklepod) [3]; rate 0.1250 kg/ha) | Preemergence herbicidal rating CASOB (CASOB (Sicklepod) [3]; rate 0.2500 kg/ha) | Preemergence herbicidal rating IPOHE ([4]; rate 0.0156 kg/ha) | Preemergence herbicidal rating IPOHE ([4]; rate 0.0313 kg/ha) | Preemergence herbicidal rating IPOHE ([4]; rate 0.0625 kg/ha) | Preemergence herbicidal rating IPOHE ([4]; rate 0.1250 kg/ha) | Preemergence herbicidal rating TRZAWR ([6]; rate 0.0156 kg/ha) | Preemergence herbicidal rating TRZAWR ([6]; rate 0.0313 kg/ha) | Preemergence herbicidal rating TRZAWR ([6]; rate 0.0625 kg/ha) | Preemergence herbicidal rating ABUTH (ABUTH (Velvetleaf); rate 0.0156 kg/ha) | Preemergence herbicidal rating GLXMAW ([7]; rate 0.0156 kg/ha) | Preemergence herbicidal rating GLXMAW ([7]; rate 0.0313 kg/ha) | Preemergence herbicidal rating GLXMAW ([7]; rate 0.0625 kg/ha) | Preemergence herbicidal rating GLXMAW ([7]; rate 0.1250 kg/ha)
4.0: Postemergence herbicidal rating AMBEL (AMBEL (Ragweed, Common); Rate 0.0313 kg/ha) | Preemergence herbicidal rating ZEAMX (ZEAMX (Corn, Field); rate 0.2500 kg/ha) | Herbicidal rating SAGPY ([1]; 0.2500 kg/ha)
1.0: Preemergence herbicidal rating IPOHE ([4]; rate 0.2500 kg/ha)
5.0: Preemergence herbicidal rating TRZAWR ([6]; rate 0.2500 kg/ha)
9.0: Postemergence herbicidal rating AMBEL (AMBEL (Ragweed, Common); Rate 0.0625 kg/ha) | Postemergence herbicidal rating IPOHE ([5]; Rate 0.0156 kg/ha) | Postemergence herbicidal rating IPOHE ([5]; Rate 0.0313 kg/ha) | Postemergence herbicidal rating IPOHE ([5]; Rate 0.0625 kg/ha) | Preemergence herbicidal rating ABUTH (ABUTH (Velvetleaf); rate 0.0313 kg/ha) | Preemergence herbicidal rating ABUTH (ABUTH (Velvetleaf); rate 0.0625 kg/ha) | Preemergence herbicidal rating ABUTH (ABUTH (Velvetleaf); rate 0.1250 kg/ha) | Preemergence herbicidal rating ABUTH (ABUTH (Velvetleaf); rate 0.2500 kg/ha) | Herbicidal rating MOOVA (MOOVA (Monochoria); 0.1250 kg/ha) | Herbicidal rating MOOVA (MOOVA (Monochoria); 0.2500 kg/ha)
3.0: Herbicidal rating CYPIR (CYPIR (Rice Flatsedge); rate 0.0625 kg/ha) | Preemergence herbicidal rating GLXMAW ([7]; rate 0.2500 kg/ha)
2.0: Preemergence herbicidal rating ZEAMX (ZEAMX (Corn, Field); rate 0.1250 kg/ha) | Preemergence herbicidal rating TRZAWR ([6]; rate 0.1250 kg/ha)
